For data set [1] the following is noted: metabolite after low-dose colchicine 1.8 mg, all subjects.
Experimental: This study was a single-center, single-period, open-label pharmacokinetic study conducted in healthy subjects under fasting conditions.
Subjects received 2×0.6 mg tablets initially followed by 1×0.6 mg tablet 1 hour later.
For data set [2] the following is noted: metabolite after single and multiple 0.6 mg colchicine doses.
Experimental: Subjects received a light breakfast served 60 minutes following dose administration in the morning and the evening dose was administered 90 minutes after an evening meal on Days 15 through 24 only. […] Study periods were separated by a 14-day washout. Following the single dose and the last dose of the multiple dose regimen (beginning on the mornings of Day 1 and Day 25, respectively), blood samples were collected (6 mL each) from each subject within 1 hour prior to dosing and after dose administration at study hours 0.5, 1, 1.5, 2, 3, 4, 6, 8, 10, 12, and 24 (while confined) and 36, 48, 72, and 96 (on an outpatient basis).
The nature of data set [3]: Pharmacokinetic study of standard-dose acute gout regimen 4.8 mg over 6 hours (Example 6). The protocol: This study was a single center, randomized, double-blind, double-dummy pharmacokinetic and exploratory ECG safety study.
Those randomized to moxifloxacin received 1×400 mg tablet.

Setting [4] is: metabolite after standard-dose colchicine 4.8 mg over 6 hours, N = 8.
[5] abbreviates: standard-dose colchicine 4.8 mg.

Read-outs that look alike come from different tables or passages of the source.

Turning to `COc1cc2c(c(OC)c1O)-c1ccc(OC)c(=O)cc1[C@@H](NC(C)=O)CC2` [2-DMC, N-[(7S,12aS)-2-hydroxy-1,3,10-trimethoxy-9-oxo-5,6,7,9-tetrahydrobenzo[a]heptalen-7-yl]-acetamide], the 2-DMC plasma concentrations result in data set [1] is “below the LOQ”; in data set [3] (metabolite after standard-dose colchicine 4.8 mg, all subjects), “below LOQ”. The “2-DMC plasma concentrations (all below LOQ)” value in data set [2] is given as less than 0.2 ng/mL.

`COc1c(O)cc2c(c1OC)-c1ccc(OC)c(=O)cc1[C@@H](NC(C)=O)CC2` [3-DMC, N-[(7S,12aS)-3-hydroxy-1,2,10-trimethoxy-9-oxo-5,6,7,9-tetrahydrobenzo[a]heptalen-7-yl]-acetamide]: in data set [3] (setting [4]), the “3-DMC AUC∞, mean” value was found to be 4.84 ng·h/mL; the “3-DMC Ke, mean” value was 0.1418 h⁻¹; the “3-DMC t1/2, mean” value is 6.93 h. Further, the “3-DMC AUC0-t, mean” value in data set [3] (metabolite after standard-dose colchicine 4.8 mg over 6 hours, N = 13) is 2.09 ng·h/mL. The “3-DMC Tmax, mean” value in data set [3] (metabolite after standard-dose colchicine 4.8 mg over 6 hours, N = 14) was 5.06 h. Moreover, the “3-DMC Cmax, mean” value in data set [3] (metabolite after standard-dose colchicine 4.8 mg over 6 hours, N = 15) came to 0.32 ng/mL. Also, in data set [3] (setting [5]), the “Mean 3-DMC AUC0-t as % of mean colchicine AUC0-t” value is recorded as approximately 2%, the “Mean 3-DMC AUC∞ as % of mean colchicine AUC∞” value was approximately 4.1% and the “Mean 3-DMC Cmax as % of mean colchicine Cmax” value is on record as “approximately 4.7%”.

For the origin of these results see US7964647B2 (Mutual Pharmaceutical Company, Inc., priority 2007, dated 2011).
